Source: the supplement of paper PMC10307832

Columns and labels:
Experiment in all cases: relative viability (nuclei count vs DMSO), 5 days (fraction); higher = more cells survive
[1] = compound: CC1=NC=CC(=C1)C2=CC=C(C=C2)CC(=O)NC3=CC=C(C=C3)C4=CN=CC=C4 [Wnt-C59] + CC1(C)CCC(c2ccc(Cl)cc2)=C(CN2CCN(c3ccc(C(=O)NS(=O)(=O)c4ccc(N[C@H](CCN5CCOCC5)CSc5ccccc5)c(S(=O)(=O)C(F)(F)F)c4)cc3)CC2)C1 [Navitoclax] (partner 0.5 µM)
Method in brief: (§1)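 Lung cancer cell lines were seeded in 1536-well plates and dosed by pin tool the next day, with either a single drug or a fixed anchor-drug dose combined with five library-drug doses (not always all listed) spaced in √10 steps. Five days later, one step fixed the cells and stained their nuclei (final 0.05% Triton X-100, 1% formaldehyde, 1 ug/ml Hoechst), and nuclei were counted on 4× images. Relative viability is the nuclei count in treated wells divided by the count in vehicle wells, and each value is the median of duplicate plates.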

[2] = compound: CC1=NC=CC(=C1)C2=CC=C(C=C2)CC(=O)NC3=CC=C(C=C3)C4=CN=CC=C4 [Wnt-C59] + Cc1cc(Nc2cc(N3CCN(C)CC3)nc(Sc3ccc(NC(=O)C4CC4)cc3)n2)n[nH]1 [Tozasertib] (partner 0.1 µM)
Method in brief: as §1

[3] = compound: CC1=NC=CC(=C1)C2=CC=C(C=C2)CC(=O)NC3=CC=C(C=C3)C4=CN=CC=C4 [Wnt-C59] + N=C(N)NC(=N)NCCc1ccccc1 [Phenformin] (partner 250 µM)
Method in brief: as §1

[4] = compound: CS(=O)(=O)CCNCc1ccc(-c2ccc3ncnc(Nc4ccc(OCc5cccc(F)c5)c(Cl)c4)c3c2)o1 [Lapatinib] + CC(C)C[C@H](NC(=O)[C@H](Cc1ccccc1)NC(=O)c1cnccn1)B(O)O [Bortezomib] (partner 0.002 µM)
Method in brief: as §1

Cell Line | relative viability ([1]; first compound 0.001 µM) | relative viability ([1]; first compound 0.01 µM) | relative viability ([1]; first compound 0.03162 µM) | relative viability ([1]; first compound 0.1 µM) | relative viability ([2]; first compound 0.001 µM) | relative viability ([2]; first compound 0.01 µM) | relative viability ([2]; first compound 0.03162 µM) | relative viability ([2]; first compound 0.1 µM) | relative viability ([3]; first compound 0.001 µM) | relative viability ([3]; first compound 0.01 µM) | relative viability ([3]; first compound 0.03162 µM) | relative viability ([3]; first compound 0.1 µM) | relative viability ([4]; first compound 0.06325 µM) | relative viability ([4]; first compound 0.2 µM) | relative viability ([4]; first compound 0.6325 µM) | relative viability ([4]; first compound 2 µM) | relative viability ([4]; first compound 0.02 µM)
NCI-H1915 | 0.822 | 0.8 | 0.77 | 0.8 | 0.471 | 0.404 | 0.508 | 0.457 | 0.362 | 0.392 | 0.385 | 0.367 | 0.973 | 1.04 | 0.915 | 0.953 | –
NCI-H1975 | 1.25 | 1.11 | 1.06 | 1.2 | 0.789 | 0.705 | 0.776 | 0.744 | 0.396 | 0.393 | 0.395 | 0.406 | 0.358 | 0.407 | 0.405 | 0.32 | 0.467
NCI-H1993 | 1.04 | 0.82 | 1.09 | 0.972 | 0.607 | – | 0.515 | 0.633 | 0.49 | – | 0.472 | 0.514 | – | 0.871 | 0.889 | 0.627 | 0.88
NCI-H2009 | 1.13 | 1.23 | 1.14 | 1.14 | 0.805 | 0.798 | 0.72 | 0.726 | 0.535 | 0.514 | 0.495 | 0.469 | 0.968 | 1.06 | 1.04 | 1.08 | 0.754
NCI-H2023 | 1 | 0.993 | 1.03 | 0.944 | 0.406 | 0.332 | 0.352 | 0.356 | 0.406 | 0.415 | 0.419 | 0.35 | 0.712 | 0.969 | 1.1 | 0.913 | 0.135
NCI-H2085 | 1.28 | 1.15 | 1.23 | 1.05 | 0.807 | 0.795 | 0.831 | 0.824 | 0.757 | 0.649 | 0.691 | 0.673 | 0.979 | 0.998 | 0.994 | 1.02 | 0.667
NCI-H2087 | 1.03 | 0.981 | 1.01 | 0.93 | 0.274 | 0.235 | 0.255 | 0.291 | 0.504 | 0.416 | 0.547 | 0.465 | 0.738 | 0.832 | 0.679 | 0.761 | 0.445
NCI-H2126 | 0.865 | 0.87 | 0.866 | 0.872 | 0.882 | 0.876 | 0.874 | 0.82 | 0.542 | 0.507 | 0.53 | 0.541 | 1.05 | 1.04 | 1.03 | 1.03 | –
NCI-H2228 | 0.957 | 0.87 | 0.68 | 1.05 | 0.31 | 0.322 | 0.264 | 0.23 | 0.325 | 0.385 | 0.294 | 0.415 | 1 | 1.09 | 1.01 | 0.801 | 0.841
NCI-H2347 | 0.897 | 0.846 | 1 | 0.748 | 0.581 | 0.453 | 0.446 | 0.618 | 0.446 | 0.369 | 0.249 | 0.388 | 1.17 | 0.87 | 0.796 | 1 | –
NCI-H2405 | 0.946 | – | 0.702 | 0.867 | 0.729 | 0.672 | 0.778 | 0.699 | 0.413 | 0.336 | 0.366 | 0.384 | 0.946 | 1.06 | 0.963 | 0.854 | 0.66
NCI-H3122 | 1.02 | 0.976 | 0.958 | 0.98 | 0.409 | 0.386 | 0.401 | 0.377 | 0.369 | 0.366 | 0.36 | 0.362 | 1 | 0.965 | 0.972 | 1.02 | 0.927
PC-3 [JPC-3] | 0.868 | 0.815 | 0.933 | 0.809 | 0.935 | 0.922 | 0.984 | 0.911 | 0.486 | 0.467 | 0.52 | 0.502 | 0.796 | 0.818 | 0.864 | 0.837 | –
PC-14 | 1 | 1.15 | 1.06 | 1.02 | 0.663 | 0.658 | 0.569 | 0.619 | 0.583 | 0.713 | 0.478 | 0.748 | 0.936 | 0.835 | 0.898 | 0.661 | 0.799
RERF-LC-KJ | 0.899 | 0.908 | 1.01 | 1.31 | 0.48 | 0.561 | 0.515 | 0.481 | 0.441 | 0.478 | 0.433 | 0.419 | 0.948 | 1.02 | 0.983 | 0.766 | 0.911
SK-LU-1 | 0.893 | 0.832 | 1.02 | 0.893 | 0.317 | 0.323 | 0.331 | 0.295 | 0.476 | 0.49 | 0.506 | 0.503 | 1.04 | 1.05 | 1.2 | 1.2 | –
SW 1573 | 1.03 | 1.04 | 1.09 | 0.989 | 0.144 | 0.196 | 0.342 | 0.167 | 0.343 | 0.41 | 0.431 | 0.365 | 0.892 | 0.953 | 1.18 | 1.01 | 1.01
